The experiment is described as follows: Inhibition of Chikungunya virus nsP2 protease infected in African green monkey Vero cells assessed as inhibition of viral-induced cytopathic effect by titration assay.

In the case of `CCOc1ccc(/C=N/NC(=O)C2CC2c2ccc(C(C)(C)C)cc2)cc1OCC` (configuration not stated), the concentration for a half-maximal effect (EC50) was determined as 5 µM.

As for `CCOc1ccc(/C=N/NC(=O)/C=C/Cc2ccc(C(C)(C)C)cc2)cc1OCC`, the EC50 is 3.2 µM.

By EC50 is commonly meant the midpoint of the concentration-response curve.

The record behind these values is BindingDB's records for doi:10.1016/j.bmc.2017.06.049 (Federal University of Alagoas, 2017).
